Literature values as cited in patent US20110142971A1, “USE OF AN ONION EXTRACT FOR MAKING A COMPOSITION TO CONTROL WEIGHT GAIN” (priority 2005, published 2011).

Key:
pancreatic lipase = target: T1, pancreatic lipase (Homo sapiens, UniProt P16233); details: human species
T1 construct: host or cells: human subjects (in vivo, digestive tract)
T1 sequence (P16233 17-465): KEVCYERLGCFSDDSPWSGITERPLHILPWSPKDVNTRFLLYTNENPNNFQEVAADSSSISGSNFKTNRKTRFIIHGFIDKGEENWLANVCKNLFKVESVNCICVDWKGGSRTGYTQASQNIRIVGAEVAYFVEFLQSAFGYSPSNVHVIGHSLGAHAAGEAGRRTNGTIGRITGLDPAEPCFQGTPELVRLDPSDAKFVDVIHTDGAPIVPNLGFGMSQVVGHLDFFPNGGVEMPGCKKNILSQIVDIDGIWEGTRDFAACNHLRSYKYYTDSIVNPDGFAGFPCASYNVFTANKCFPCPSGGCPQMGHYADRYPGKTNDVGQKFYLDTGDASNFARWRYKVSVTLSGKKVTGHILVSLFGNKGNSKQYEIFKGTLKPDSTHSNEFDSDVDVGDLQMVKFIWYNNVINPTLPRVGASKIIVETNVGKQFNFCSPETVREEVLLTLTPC

[1] = in vivo

## CCCCCCCCCCC[C@@H](C[C@@H]1OC(=O)[C@H]1CCCCCC)OC(=O)[C@H](CC(C)C)NC=O [tetrahydrolipstatin, [2S-[2-α(R),3β]]-N-formyl-L-leucine 1-[(3-hexyl-4-oxo-2-oxetanyl)methyl]dodecyl ester]
Pancreatic lipase
  Average reduction of the lipids contained in food: about one third
[1]
  Side effects: steatorrhoea, anal exudation, abdominal pains, nausea and vomiting, or fat-soluble vitamin absorption reduction
